Results reported in patent US9200015B2, “Inositol hexakisphosphate analogs and uses thereof” (priority 2011, dated 2015).
Entries after “also recorded” stand apart in the source; their conditions may differ. Like-named read-outs stand apart in the source and are kept apart here.

What was measured:
[1] = tested on: TcdA and TcdB holotoxins; format: biochemical, Clostridium difficile; settings: for AC50: read-out: AC50 (concentration that provides half the maximum activity)
Protocol: (§1) In Vitro Testing of Nitroso-InsP6 Derivatives. In vitro testing and measurement of binding affinities of compounds are performed using toxin cleavage assays, and by radioligand or BIACORE-toxin binding studies, respectively. For medium throughput toxin cleavage assays, autocleavage of 1 μg TcdA and TcdB holotoxins is performed in 25 μL 20 mM Tris-HCI, 150 mM NaCI (pH 7.4) with and without InsP6 for 10-60 min at 37° C. (FIG. 6). Cleavage reactions are then stopped with SDS-PAGE loading buffer and boiling at 96° C. for 5 min. Samples are then run under reducing conditions on 4-20% gradient gels and cleavage products stained with GelcodeBiue™ for 1 hr and cleared in water overnight. AC50 and IC50 concentrations are calculated by measuring the relative absorbance of cleavage fragments relative to intact toxin using a LiCor Odyssey infrared scanner (λ=680 nm). Cleavage is plotted against ligand concentration using four-parameter logistic curve fitting on SigmaPlot 11.0 software. If the toxin cleavage efficiency remains unaltered in purified nitroso-InsP6 fractions, then toxin Rac1 glucosylation and cell rounding assays are initiated to evaluate cytoprotection in cell culture systems. […] Thus, enzymatic digestions of nitroso-InsP6 derivatives are carried out with EC 3.1.3.8 (type 3 phytase); EC 3.1.3.72 (type 5 phytase), and EC 3.1.3.26 (type 4/6 phytase) to test whether the NO-modifications are nonhydrolysable (e.g., FIG. 7).

[2] = tested on: phytase; settings: FIG. 7
Protocol: In Vitro Testing of Nitroso-InsP6 Derivatives. In vitro testing and measurement of binding affinities of compounds are performed using toxin cleavage assays, and by radioligand or BIACORE-toxin binding studies, respectively. For medium throughput toxin cleavage assays, autocleavage of 1 μg TcdA and TcdB holotoxins is performed in 25 μL 20 mM Tris-HCI, 150 mM NaCI (pH 7.4) with and without InsP6 for 10-60 min at 37° C. (FIG. 6). Cleavage reactions are then stopped with SDS-PAGE loading buffer and boiling at 96° C. for 5 min. Samples are then run under reducing conditions on 4-20% gradient gels and cleavage products stained with GelcodeBiue™ for 1 hr and cleared in water overnight. AC50 and IC50 concentrations are calculated by measuring the relative absorbance of cleavage fragments relative to intact toxin using a LiCor Odyssey infrared scanner (λ=680 nm). Cleavage is plotted against ligand concentration using four-parameter logistic curve fitting on SigmaPlot 11.0 software. If the toxin cleavage efficiency remains unaltered in purified nitroso-InsP6 fractions, then toxin Rac1 glucosylation and cell rounding assays are initiated to evaluate cytoprotection in cell culture systems. […]

[3] = biological target: TcdA and TcdB holotoxins (Clostridioides difficile, UniProt P18177); format: biochemical, Clostridium difficile
TcdA and TcdB holotoxins (Clostridioides difficile, UniProt P18177), sequence (P18177 2-2366 limits assumed): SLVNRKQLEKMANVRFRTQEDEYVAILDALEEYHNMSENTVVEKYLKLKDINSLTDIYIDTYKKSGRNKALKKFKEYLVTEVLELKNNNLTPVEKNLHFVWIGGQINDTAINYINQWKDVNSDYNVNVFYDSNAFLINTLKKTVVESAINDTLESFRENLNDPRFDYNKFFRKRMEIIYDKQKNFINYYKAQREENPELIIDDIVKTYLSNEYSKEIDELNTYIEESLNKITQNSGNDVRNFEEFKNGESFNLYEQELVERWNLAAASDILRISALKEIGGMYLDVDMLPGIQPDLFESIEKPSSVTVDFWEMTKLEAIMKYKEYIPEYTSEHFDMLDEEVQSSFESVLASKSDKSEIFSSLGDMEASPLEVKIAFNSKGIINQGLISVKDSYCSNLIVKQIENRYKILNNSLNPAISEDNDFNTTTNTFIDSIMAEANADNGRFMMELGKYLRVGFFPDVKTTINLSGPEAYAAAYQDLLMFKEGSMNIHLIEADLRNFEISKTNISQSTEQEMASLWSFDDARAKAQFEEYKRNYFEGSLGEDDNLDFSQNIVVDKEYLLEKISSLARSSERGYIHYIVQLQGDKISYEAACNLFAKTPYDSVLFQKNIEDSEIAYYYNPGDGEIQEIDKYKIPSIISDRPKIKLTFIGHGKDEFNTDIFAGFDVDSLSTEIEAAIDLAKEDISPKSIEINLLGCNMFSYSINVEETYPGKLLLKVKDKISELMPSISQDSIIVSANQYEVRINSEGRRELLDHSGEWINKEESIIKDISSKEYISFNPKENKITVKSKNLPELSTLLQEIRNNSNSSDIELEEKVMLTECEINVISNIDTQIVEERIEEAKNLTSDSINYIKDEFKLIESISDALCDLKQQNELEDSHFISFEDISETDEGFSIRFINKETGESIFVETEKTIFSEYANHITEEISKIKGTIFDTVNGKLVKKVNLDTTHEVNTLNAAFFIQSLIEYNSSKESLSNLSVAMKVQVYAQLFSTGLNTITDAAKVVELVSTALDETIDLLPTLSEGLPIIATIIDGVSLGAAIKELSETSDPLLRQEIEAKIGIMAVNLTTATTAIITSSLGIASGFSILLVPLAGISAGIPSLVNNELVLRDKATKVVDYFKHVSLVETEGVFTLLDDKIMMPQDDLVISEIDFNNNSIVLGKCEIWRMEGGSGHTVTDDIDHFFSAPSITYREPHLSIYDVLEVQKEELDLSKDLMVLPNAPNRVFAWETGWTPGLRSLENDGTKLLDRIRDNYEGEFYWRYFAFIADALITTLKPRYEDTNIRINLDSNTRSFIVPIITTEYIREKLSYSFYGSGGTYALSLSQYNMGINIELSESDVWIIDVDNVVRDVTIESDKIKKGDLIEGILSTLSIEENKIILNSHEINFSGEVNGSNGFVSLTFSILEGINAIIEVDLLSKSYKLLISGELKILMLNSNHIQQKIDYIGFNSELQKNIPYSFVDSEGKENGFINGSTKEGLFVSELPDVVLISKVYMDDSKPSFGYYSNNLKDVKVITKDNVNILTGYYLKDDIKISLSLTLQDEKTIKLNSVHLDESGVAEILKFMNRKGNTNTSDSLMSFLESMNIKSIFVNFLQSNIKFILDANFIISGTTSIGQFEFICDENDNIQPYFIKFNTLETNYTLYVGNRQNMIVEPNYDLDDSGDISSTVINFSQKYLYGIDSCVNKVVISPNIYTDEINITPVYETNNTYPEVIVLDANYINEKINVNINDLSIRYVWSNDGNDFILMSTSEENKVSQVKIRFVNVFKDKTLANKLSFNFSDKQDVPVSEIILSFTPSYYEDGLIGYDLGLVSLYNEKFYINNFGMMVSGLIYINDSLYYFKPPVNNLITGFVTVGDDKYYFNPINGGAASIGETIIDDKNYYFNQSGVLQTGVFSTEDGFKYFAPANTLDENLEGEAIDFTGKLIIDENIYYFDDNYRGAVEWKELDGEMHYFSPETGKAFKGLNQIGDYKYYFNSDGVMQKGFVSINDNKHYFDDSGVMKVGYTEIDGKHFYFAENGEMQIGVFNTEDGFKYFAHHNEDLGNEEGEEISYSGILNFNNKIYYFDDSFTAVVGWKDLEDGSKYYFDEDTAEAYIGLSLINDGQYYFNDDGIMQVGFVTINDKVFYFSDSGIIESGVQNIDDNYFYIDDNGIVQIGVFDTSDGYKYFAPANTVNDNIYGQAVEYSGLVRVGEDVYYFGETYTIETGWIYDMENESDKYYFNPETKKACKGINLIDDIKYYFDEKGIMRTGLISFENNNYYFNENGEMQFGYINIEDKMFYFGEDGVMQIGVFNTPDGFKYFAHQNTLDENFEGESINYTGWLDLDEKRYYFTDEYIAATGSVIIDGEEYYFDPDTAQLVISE
Protocol: as §1

[4] = tested on: Caco-2 colonocytes; assay: Inhibition of toxin-induced cytotoxicity in Caco-2 colonocytes; format: cell-based; settings: Homo sapiens, FIG. 3A right
[5] = tested on: C. difficile (strain VPI 10463); assay: Murine CDI model, InsP6 given intragastrically; format: in vivo, C57BL/6 mice; settings: for Protection of mice from CDI (survival): oral/intragastric 0.25 and 2.5 mg/kg/day, 10^6 C. difficile, survival at day 6
Protocol: FIGS. 3A-3D show therapeutic allostery and examples of the assays to test designed compounds. […] (FIGS. 3C-3D) Kaplan-Meier survival plots of infected mice. C57BL/6 mice were inoculated with 10^6 C. difficile.
Optimization of Phytase-Resistant InsP6 Analogues for CDI Therapy. Aspects of the present invention provide compositions and methods of neutralizing C. difficile exotoxins in the extracellular gut environment. […] C57BL/6 mice were administered antibiotics and then orally inoculated with 10^4-to-10^6 C. difficile (strain VPI 10463). Disease outcome measures included evidence of inflammation and fluid secretion in the caecum and colon of severely afflicted animals, and of characteristic pseudomembraneous histopathologic lesions in the colonic mucosa. […] The highest bacterial dose (10^6 CFU) was used to test for InsP6 efficacy given intra-gastrically (0.25-to-2.5 mg/kg/day; range is within the recommended oral daily dose for humans (1,020 mg/day)).

[6] = tested on: C. difficile; assay: Experimental CDI model, delivery by implanted mini-osmotic pumps; format: in vivo, mice; settings: 12.5 mg/kg/day by 7 day mini-osmotic pumps, from 1 day before inoculation with 10^6 bacteria
Description: In this set of experiments, vehicle treatment was associated with 100% mortality, vs. 40% and 10% for InsP6 and nitroso-InsP6 groups, respectively.
Because of the current uncertainty of the nitroso-InsP6 chemistry, there may be potential limitations to oral nitroso-InsP6 delivery as this molecule may show poor colonic bioavailability due to degradation and absorption in the small intestine.

[7] = Table 1, representative inositol analogs

Work on O=P(O)(O)OC1C(O)C(OP(=O)(O)O)C(OP(=O)(O)O)C(OP(=O)(O)O)C1O (stereo not drawn) [Myo-InsP4(2,6), myo-inositol-(1,3,4,5-tetrakisphosphate)] yielded an AC50 [1, 7] of over 1000 µM.

Molecule O=P(O)(O)OC1C(O)C(OP(=O)(O)O)C(OP(=O)(O)O)C(OP(=O)(O)O)C1O (stereo not drawn) [Myo-InsP4(4,6), myo-inositol-(1,2,3,5-tetrakisphosphate)] has an AC50 [1, 7] of over 1000 µM.

With O=P(O)(O)OC1C(O)C(OP(=O)(O)O)C(OP(=O)(O)O)C(OP(=O)(O)O)C1OP(=O)(O)O (stereo not drawn) [Myo-InsP5(1), myo-inositol-(2,3,4,5,6-pentakisphosphate)] the AC50 [1, 7] was 8.67 µM.

For O=P(O)(O)OC1C(O)C(OP(=O)(O)O)C(OP(=O)(O)O)C(OP(=O)(O)O)C1OP(=O)(O)O (stereo not drawn) [Myo-InsP5(2), myo-inositol-(1,3,4,5,6-pentakisphosphate)], the AC50 [1, 7] was 10.5 µM.

Molecule O=P(O)(O)OC1C(O)C(OP(=O)(O)O)C(OP(=O)(O)O)C(OP(=O)(O)O)C1OP(=O)(O)O (stereo not drawn) [Myo-InsP5(3), myo-inositol-(1,2,4,5,6-pentakisphosphate)] has an AC50 [1, 7] of 95.6 µM.

O=P(O)(O)OC1[C@H](OP(=O)(O)O)[C@H](OP(=O)(O)O)C(O)[C@H](OP(=O)(O)O)[C@H]1OP(=O)(O)O (stereo partly drawn) [Myo-InsP5(4), myo-inositol-(1,2,3,5,6-pentakisphosphate)] gave an AC50 [1] of over 1000 µM.

In the case of OP(O)(=S)OC1C(OP(O)(O)=S)C(OP(O)(O)=S)C(OP(O)(O)=S)C(OP(O)(O)=S)C1OP(O)(O)=S [Myo-InsP6(S), myo-inositol-(1,2,3,4,5,6-phosphorothioate)], the AC50 [1, 7] is reported as 1.99 µM and the Phytase resistance [2] is reported as “increased phytase resistance”.

In the case of O=P(O)(O)O[C@H]1[C@H](OP(=O)(O)O)[C@@H](OP(=O)(O)O)[C@H](OP(=O)(O)O)[C@@H](OP(=O)(O)O)[C@H]1OP(=O)(O)O [Myo-InsP6, myo-inositol-hexakisphosphate], the “IC50, C. difficile toxins autocleaved” value ([3]; FIGS. 3A-3B) is reported as 10 µM, the “AC50, toxin autocleavage” value ([3]; TcdB, FIG. 3A left) is reported as 10 µM and the AC50 [1] is reported as 14.8 µM. For the same molecule, the IC50 [4] was 10 µM, the “Statistical significance of the protective effect” value ([5]; 2.5 mg/kg group) was “statistically significant” and the “Protection of mice from CDI (survival)” value [5] was “dose dependently protects mice from CDI; also recorded: dose-dependent protective effects”. It also gave a Mortality [6] of 40%.

In the case of O[C@H]1[C@H](O)[C@@H](O)[C@H](O)[C@@H](O)[C@H]1O [myo-inositol, (1R,2R,3S,4S,5R,6S)-cyclohexane-1,2,3,4,5,6-hexol], the “Protection of mice from CDI (survival)” value [5] is reported as “not evident”.

Work on “(1/3)-phospho-myo-inositol hexaakisphosphate [Myo-InsP7(1/3)]” yielded an AC50 [1, 7] of 3.04 µM.

With inositolhexakissulfate [InS6] the “Toxin cleavage activity (preliminary studies)” value [1] was “active compound”.
